From the supplement of paper PMC12463676, “Small-molecule dissolution of stress granules by redox modulation benefits ALS models” (Nature Chemical Biology, 2025)

Experiments:
lipoamide = compound: NC(=O)CCCCC1CCSS1 [lipoamide]; assay: thermal stability z-score vs DMSO; higher = more thermally stabilized by treatment; conditions: HeLa, lipoamide concentration 100 µM
Method: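 Cellular thermal proteome profiling in HeLa cells. Cells were treated with 100 µM lipoamide for 1 h, with or without 1 mM arsenate for a further 1 h, then heated to ten temperatures (37-66.3 °C), and soluble protein was quantified by TMT mass spectrometry relative to 0.1% DMSO controls. The thermal stability score (sum of log2 fold changes minus the abundance score) was transformed to a z-score; mean of n = 3 experiments.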

potassium arsenate = compound: O=[As]([O-])(O)O.[K+] [potassium arsenate]; assay: as above; conditions: HeLa; arsenate concentration 1 mM
Method: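 Cellular thermal proteome profiling in HeLa cells treated with 1 mM arsenate for 1 h (DMSO pretreatment), heated to ten temperatures (37-66.3 °C). Soluble protein was quantified by TMT mass spectrometry relative to DMSO controls; the thermal stability score was transformed to a z-score; mean of n = 3 experiments.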

[1] = arsenate co-treatment: 1 mM arsenate 1 h
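Further: each temperature applied for 3 min, abundance score taken as mean log2 fold change at the two lowest temperatures, z-score obtained by mean subtraction and division by SD.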

Chain of UniProt P67870 (P67870 whole entry): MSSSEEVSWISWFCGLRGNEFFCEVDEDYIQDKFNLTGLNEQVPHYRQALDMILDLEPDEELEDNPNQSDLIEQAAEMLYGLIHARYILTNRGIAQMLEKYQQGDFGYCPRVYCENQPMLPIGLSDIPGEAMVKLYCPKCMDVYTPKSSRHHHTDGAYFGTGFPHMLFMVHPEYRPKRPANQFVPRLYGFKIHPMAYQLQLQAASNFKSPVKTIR
Chain of UniProt Q29RF7 (Q29RF7 whole entry): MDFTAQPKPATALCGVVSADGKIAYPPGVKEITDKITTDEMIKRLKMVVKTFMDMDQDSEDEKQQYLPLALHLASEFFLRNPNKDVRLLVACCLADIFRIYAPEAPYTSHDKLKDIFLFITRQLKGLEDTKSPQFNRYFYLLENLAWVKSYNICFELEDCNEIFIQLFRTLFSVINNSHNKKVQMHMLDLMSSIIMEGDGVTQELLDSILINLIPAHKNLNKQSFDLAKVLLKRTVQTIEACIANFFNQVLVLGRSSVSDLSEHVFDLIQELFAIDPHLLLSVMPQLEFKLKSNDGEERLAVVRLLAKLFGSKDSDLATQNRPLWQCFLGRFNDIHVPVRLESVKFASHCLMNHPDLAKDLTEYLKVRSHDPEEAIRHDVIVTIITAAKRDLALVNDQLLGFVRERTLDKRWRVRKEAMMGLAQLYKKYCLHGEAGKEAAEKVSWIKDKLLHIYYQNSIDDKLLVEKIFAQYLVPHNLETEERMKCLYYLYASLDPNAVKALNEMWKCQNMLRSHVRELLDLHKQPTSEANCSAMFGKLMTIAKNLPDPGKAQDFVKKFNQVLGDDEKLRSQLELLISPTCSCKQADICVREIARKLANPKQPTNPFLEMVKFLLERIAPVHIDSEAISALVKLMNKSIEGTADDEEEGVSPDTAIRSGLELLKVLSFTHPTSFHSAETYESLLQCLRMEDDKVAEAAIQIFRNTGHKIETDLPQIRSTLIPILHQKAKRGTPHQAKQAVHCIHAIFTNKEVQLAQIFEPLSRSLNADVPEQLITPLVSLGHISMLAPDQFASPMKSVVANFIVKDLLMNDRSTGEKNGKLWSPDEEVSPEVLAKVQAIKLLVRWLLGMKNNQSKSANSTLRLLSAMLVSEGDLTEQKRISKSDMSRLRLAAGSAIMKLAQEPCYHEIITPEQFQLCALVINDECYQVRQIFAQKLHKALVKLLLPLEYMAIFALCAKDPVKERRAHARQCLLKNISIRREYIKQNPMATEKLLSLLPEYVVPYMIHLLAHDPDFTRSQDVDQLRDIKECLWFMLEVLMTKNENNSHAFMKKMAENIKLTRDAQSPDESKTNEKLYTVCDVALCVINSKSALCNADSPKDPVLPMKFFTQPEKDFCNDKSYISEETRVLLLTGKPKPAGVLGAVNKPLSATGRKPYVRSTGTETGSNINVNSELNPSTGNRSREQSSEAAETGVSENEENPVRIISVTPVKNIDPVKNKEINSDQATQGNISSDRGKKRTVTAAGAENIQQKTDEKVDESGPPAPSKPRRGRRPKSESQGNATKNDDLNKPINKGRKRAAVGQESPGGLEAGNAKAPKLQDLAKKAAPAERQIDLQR
Chain of UniProt P26358 (P26358 whole entry): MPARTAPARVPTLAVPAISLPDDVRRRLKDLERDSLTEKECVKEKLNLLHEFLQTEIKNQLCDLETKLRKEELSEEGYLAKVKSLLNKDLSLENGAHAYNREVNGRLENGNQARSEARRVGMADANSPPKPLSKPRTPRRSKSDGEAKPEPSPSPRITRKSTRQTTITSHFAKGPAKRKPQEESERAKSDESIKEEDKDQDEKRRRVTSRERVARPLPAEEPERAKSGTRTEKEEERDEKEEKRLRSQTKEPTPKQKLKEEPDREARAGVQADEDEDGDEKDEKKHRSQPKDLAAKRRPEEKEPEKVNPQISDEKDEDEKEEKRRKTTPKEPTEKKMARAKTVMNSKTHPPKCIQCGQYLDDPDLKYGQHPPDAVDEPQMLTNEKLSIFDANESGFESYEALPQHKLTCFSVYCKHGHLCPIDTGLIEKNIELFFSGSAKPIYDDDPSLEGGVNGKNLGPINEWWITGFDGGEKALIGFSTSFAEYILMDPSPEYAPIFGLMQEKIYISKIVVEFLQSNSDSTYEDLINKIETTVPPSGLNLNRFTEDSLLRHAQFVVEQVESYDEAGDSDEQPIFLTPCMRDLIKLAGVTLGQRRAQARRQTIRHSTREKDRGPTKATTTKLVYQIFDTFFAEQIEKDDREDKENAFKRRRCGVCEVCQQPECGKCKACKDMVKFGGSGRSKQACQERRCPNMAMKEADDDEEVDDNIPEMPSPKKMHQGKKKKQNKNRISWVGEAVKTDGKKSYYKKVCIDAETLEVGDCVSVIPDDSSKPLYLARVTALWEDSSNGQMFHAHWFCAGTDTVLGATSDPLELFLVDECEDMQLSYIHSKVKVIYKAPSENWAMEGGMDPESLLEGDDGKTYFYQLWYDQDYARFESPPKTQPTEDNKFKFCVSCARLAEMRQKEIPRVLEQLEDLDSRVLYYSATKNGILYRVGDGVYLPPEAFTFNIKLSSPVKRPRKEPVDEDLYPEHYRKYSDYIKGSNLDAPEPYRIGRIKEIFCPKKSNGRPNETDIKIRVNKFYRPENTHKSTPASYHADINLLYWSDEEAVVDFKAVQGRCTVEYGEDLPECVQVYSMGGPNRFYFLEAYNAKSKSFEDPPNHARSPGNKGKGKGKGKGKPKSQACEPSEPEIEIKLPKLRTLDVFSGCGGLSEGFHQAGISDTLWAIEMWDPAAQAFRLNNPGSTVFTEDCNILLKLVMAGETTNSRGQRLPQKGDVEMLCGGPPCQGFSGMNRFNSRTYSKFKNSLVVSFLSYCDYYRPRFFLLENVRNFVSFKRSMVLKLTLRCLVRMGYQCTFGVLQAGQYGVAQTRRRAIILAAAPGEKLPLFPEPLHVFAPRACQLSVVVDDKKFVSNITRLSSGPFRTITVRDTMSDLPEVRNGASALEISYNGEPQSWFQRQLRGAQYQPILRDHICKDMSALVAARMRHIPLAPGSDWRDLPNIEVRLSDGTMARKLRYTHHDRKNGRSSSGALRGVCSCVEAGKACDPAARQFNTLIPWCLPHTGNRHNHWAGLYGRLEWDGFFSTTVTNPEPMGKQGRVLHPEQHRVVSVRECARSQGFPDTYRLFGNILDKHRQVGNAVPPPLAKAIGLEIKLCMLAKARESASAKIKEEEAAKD
Chain of UniProt P42229 (P42229 whole entry): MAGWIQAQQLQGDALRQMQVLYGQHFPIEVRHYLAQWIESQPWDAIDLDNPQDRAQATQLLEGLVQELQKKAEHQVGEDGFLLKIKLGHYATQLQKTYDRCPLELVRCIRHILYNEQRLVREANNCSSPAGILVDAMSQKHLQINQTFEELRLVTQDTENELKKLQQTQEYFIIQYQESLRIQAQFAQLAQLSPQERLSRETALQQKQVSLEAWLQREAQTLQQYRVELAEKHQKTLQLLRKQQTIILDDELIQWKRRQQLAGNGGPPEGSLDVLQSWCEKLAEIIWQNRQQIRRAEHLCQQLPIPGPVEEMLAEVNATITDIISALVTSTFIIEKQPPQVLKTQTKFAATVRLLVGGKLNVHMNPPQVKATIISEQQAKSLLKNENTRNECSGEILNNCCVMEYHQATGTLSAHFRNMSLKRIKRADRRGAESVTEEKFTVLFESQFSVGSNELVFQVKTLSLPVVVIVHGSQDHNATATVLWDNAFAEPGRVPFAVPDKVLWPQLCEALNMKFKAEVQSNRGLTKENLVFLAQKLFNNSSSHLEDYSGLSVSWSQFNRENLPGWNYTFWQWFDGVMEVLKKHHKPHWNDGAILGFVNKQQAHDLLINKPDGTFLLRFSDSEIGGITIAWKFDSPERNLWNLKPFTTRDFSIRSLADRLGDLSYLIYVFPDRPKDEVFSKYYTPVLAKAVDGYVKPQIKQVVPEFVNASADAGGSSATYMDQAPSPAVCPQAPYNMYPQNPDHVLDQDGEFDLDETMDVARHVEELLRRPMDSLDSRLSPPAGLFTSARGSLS
Chain of UniProt O43707 (O43707 whole entry): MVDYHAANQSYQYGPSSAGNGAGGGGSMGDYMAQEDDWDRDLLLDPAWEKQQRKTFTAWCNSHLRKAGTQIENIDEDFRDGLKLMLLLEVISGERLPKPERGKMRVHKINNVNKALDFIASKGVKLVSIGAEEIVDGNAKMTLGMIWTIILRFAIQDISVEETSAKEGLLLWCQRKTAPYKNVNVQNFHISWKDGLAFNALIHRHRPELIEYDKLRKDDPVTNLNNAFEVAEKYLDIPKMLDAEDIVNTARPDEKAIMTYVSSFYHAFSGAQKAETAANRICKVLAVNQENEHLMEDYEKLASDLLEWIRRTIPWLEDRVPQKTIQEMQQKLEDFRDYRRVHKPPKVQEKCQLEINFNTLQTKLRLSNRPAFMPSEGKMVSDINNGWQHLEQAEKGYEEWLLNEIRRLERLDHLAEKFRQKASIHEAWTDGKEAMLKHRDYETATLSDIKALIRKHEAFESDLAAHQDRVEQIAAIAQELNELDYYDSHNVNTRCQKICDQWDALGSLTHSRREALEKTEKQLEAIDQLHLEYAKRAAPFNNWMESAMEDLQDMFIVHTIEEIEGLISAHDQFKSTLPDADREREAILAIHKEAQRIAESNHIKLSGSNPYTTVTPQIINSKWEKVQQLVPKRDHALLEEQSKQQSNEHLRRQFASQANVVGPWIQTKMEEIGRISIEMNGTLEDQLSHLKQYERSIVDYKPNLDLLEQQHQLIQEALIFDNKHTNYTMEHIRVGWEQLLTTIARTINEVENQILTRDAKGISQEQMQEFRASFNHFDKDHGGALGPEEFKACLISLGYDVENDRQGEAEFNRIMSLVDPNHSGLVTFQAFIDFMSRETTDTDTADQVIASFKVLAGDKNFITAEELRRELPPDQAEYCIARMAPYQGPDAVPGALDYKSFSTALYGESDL
Chain of UniProt Q9BQI0 (Q9BQI0 whole entry): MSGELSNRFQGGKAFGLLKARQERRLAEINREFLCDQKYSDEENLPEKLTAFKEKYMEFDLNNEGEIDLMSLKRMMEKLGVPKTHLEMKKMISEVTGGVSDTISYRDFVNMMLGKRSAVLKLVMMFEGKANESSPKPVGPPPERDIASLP

Target	thermal stability z-score (lipoamide; [1])	thermal stability z-score (lipoamide; arsenate co-treatment: none)	thermal stability z-score (potassium arsenate)
LSM2 (UniProt Q9Y333)	0.00908	0.0523	-0.136
PDS5A (UniProt Q29RF7)	0.543	0.408	-0.428
SCAMP1 (UniProt O15126)	0.621	0.765	0.0619
UGP2 (UniProt Q16851)	0.388	-0.0879	0.872
STAT5A (UniProt P42229)	-0.0259	0.314	0.0163
HSPA14 (UniProt Q0VDF9)	-0.553	-0.226	0.837
TTF2 (UniProt Q9UNY4)	-1.12	0.461	-0.0154
CD81 (UniProt P60033)	-0.142	-0.642	-0.753
LAMC1 (UniProt P11047)	-2.97	-2.6	1.15
NDUFB10 (UniProt O96000)	-0.509	-0.759	0.18
SNRNP200 (UniProt O75643)	-0.116	-0.285	-0.662
PDPK1 (UniProt O15530)	0.174	0.131	0.451
RPN1 (UniProt P04843)	-1.47	-0.974	0.346
DNMT1 (UniProt P26358)	-0.115	0.0323	-0.517
MRPL21 (UniProt Q7Z2W9)	-0.754	-0.591	0.0405
RABEP1 (UniProt Q15276)	-0.36	-0.194	0.182
R3HCC1L (UniProt Q7Z5L2)	0.00414	0.282	0.0177
SRSF2 (UniProt Q01130)	0.414	0.274	-0.0469
TSG101 (UniProt Q99816)	0.29	0.0321	-0.0661
KTN1 (UniProt Q86UP2)	0.265	0.505	0.294
GINS2 (UniProt Q9Y248)	-0.0167	0.00771	0.0793
MTMR14 (UniProt Q8NCE2)	-1.39	-0.656	-0.829
ADSS (UniProt P30520)	0.449	-0.203	-1.32
PITPNB (UniProt P48739)	-0.0644	0.129	-1.18
VCPIP1 (UniProt Q96JH7)	-0.216	-0.156	-0.233
REPS2 (UniProt Q8NFH8)	0.13	-0.0113	-0.0535
PPIP5K1 (UniProt Q6PFW1)	-0.0717	0.0968	0.125
UBL4A (UniProt P11441)	0.683	1.2	1.11

Target	thermal stability z-score (lipoamide; [1])	thermal stability z-score (lipoamide; arsenate co-treatment: none)	thermal stability z-score (potassium arsenate)
CNOT10 (UniProt Q9H9A5)	-0.532	0.228	0.677
CSNK2B (UniProt P67870)	1.66	1.48	0.656
ANP32A (UniProt P39687)	0.324	0.51	0.197
CYR61 (UniProt O00622)	-1.72	-1.47	-4.51
CD2AP (UniProt Q9Y5K6)	0.591	0.887	0.988
COX17 (UniProt Q14061)	-0.762	-2.24	-2.23
DAB2IP (UniProt Q5VWQ8)	-0.101	-0.023	-0.398
SLC25A46 (UniProt Q96AG3)	-0.105	0.322	0.109
AIF1L (UniProt Q9BQI0)	-0.218	-0.305	-0.374
TMEM126A (UniProt Q9H061)	0.676	0.815	0.231
BACE2 (UniProt Q9Y5Z0)	-0.766	-0.974	1.09
CPSF3 (UniProt Q9UKF6)	0.15	-0.0907	-0.0903
PPP1R15B (UniProt Q5SWA1)	-0.102	-0.0322	-0.0349
TTLL12 (UniProt Q14166)	1.14	0.696	-0.427
ALDH9A1 (UniProt P49189)	-0.257	-0.212	-1.15
PRC1 (UniProt O43663)	-0.144	-0.106	-0.601
STRAP (UniProt Q9Y3F4)	0.312	0.0419	-0.875
MAPKAPK2 (UniProt P49137)	0.451	0.459	0.48
SLC30A1 (UniProt Q9Y6M5)	0.17	0.0172	-0.906
BOP1 (UniProt Q14137)	-1.64	-0.108	0.0419
ACTN4 (UniProt O43707)	0.262	0.364	0.498
EHD2 (UniProt Q9NZN4)	-0.612	-0.489	-0.781
ZZEF1 (UniProt O43149)	0.044	0.201	0.0396
ITM2B (UniProt Q9Y287)	0.215	-0.0896	-0.251
CSTF3 (UniProt Q12996)	0.159	0.0381	-0.661
MET (UniProt P08581)	-0.338	-0.235	0.073
GPALPP1 (UniProt Q8IXQ4)	-0.0123	0.162	-0.865
